From patent publication US20240376073A1 (Hoffmann-La Roche Inc., priority 2021, published 2024)
Where a name gives a salt, the structure may show the parent alone. Read-outs that look alike come from different tables or passages of the source.

Tested on: Acinetobacter baumannii ATCC17961
Assay: Antimicrobial susceptibility testing: 90% growth inhibitory concentration (IC90) determination
Assay type: cell-based
Conditions: Iso-Sensitest broth, growth by OD 600 nm over 16 h, 35±2° C.
In short: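 Twofold serial dilutions (e.g. 50 to 0.097 μM final) in Iso-Sensitest broth, inoculated at ~5×10^(5) CFU/ml, incubated at 35±2° C. OD600 read every 20 min over 16 h; IC90 derived from growth inhibition during logarithmic growth.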

[1] = Acinetobacter baumannii, ATCC17961, 16 h, read-out: ATCC 17961 IC90, Acinetobacter baumannii ATCC17961
[2] = Acinetobacter baumannii ATCC17961, read-out: ATCC 17961 IC90

Compound	IC90 [1] [µM]	IC90 [2] [µM]
COc1ccc(-c2cnc(C(=O)Nc3ccc(C(=O)N4CCN(C(=O)[C@@H]5C[C@@H](O)C[N+]5(C)C)CC4)c(Cl)c3)n2C)c(Cl)c1F [Example B43, 5-(2-chloro-3-fluoro-4-methoxy-phenyl)-N-[3-chloro-4-[4-[(2S,4R)-4-hydroxy-1,1-dimethyl-pyrrolidin-1-ium-2-carbonyl]piperazine-1-carbonyl]phenyl]-1-methyl-imidazole-2-carboxamide; formate]	0.12	
Cn1c(-c2ccc(OC(F)F)c(F)c2Cl)cnc1C(=O)Nc1ccc(C(=O)N2CCN(C(=O)C3CC[N+](CC(N)=O)(CC(N)=O)CC3)CC2)c(Cl)c1 [Example C9, N-[4-[4-[1,1-bis(2-amino-2-oxo-ethyl)piper-idin-1-ium-4-carbonyl]piper-azine-1-carbon-yl]-3-chloro-phenyl]-5-[2-chloro-4-(difluorometh-oxy)-3-fluoro-phenyl]-1-methyl-imid-azole-2-carbox-amide; formate]	0.12	
Cc1cc(NC(=O)c2ncc(-c3ccc(OCC#N)c(F)c3F)n2C)ccc1C(=O)N1CCN(C(=O)C[N+](C)(C)C)CC1 [Example A8, [2-[4-[4-[[5-[4-(cyanomethoxy)-2,3-difluoro-phenyl]-1-methyl-imidazole-2-carbonyl]amino]-2-methyl-benzoyl]piperazin-1-yl]-2-oxo-ethyl]-trimethyl-ammonium; iodide]		0.31
COc1ccc(-c2cnc(C(=O)Nc3ccc(C(=O)N4CCN(C(=O)N5CC[N+](C)(CC(=O)O)CC5)CC4)c(Cl)c3)n2C)c(F)c1F [Example C36, 2-[4-[4-[2-chloro-4-[[5-(2,3-difluoro-4-methoxy-phenyl)-1-methyl-imidazole-2-carbonyl]amino]benzoyl]piperazine-1-carbonyl]-1-methyl-piperazin-1-ium-1-yl]acetic acid formate]	1.1	
COc1ccc(-c2cnc(C(=O)Nc3ccc(C(=O)N4CCN(C(=O)NC5C[N+](C)(C)CC5O)CC4)c(Cl)c3)n2C)c(F)c1F (stereo not shown) [Example B39, 4-[2-chloro-4-[[5-(2,3-difluoro-4-methoxy-phenyl)-1-methyl-imidazole-2-carbonyl]amino]benzoyl]-N-(4-hydroxy-1,1-dimethyl-pyrrolidin-1-ium-3-yl)piperazine-1-carboxamide; formate]	0.11	
COc1ccc(-c2cnc(C(=O)Nc3ccc(C(=O)N4CCN(C(=O)C5CC[N+](CC(=O)O)(CC6CNC6)CC5)CC4)c(Cl)c3)n2C)c(F)c1F (stereo not shown) [Example C33, 2-[1-(azetidin-3-ylmethyl)-4-[4-[2-chloro-4-[[5-(2,3-difluoro-4-methoxy-phenyl)-1-methyl-imidazole-2-carbonyl]amino]benzoyl]piperazine-1-carbonyl]piperidin-1-ium-1-yl]acetic acid; formate]	0.49	
Cn1c(-c2ccc(OCF)c(F)c2F)cnc1C(=O)Nc1ccc(C(=O)N2CCN(C(=O)[C@H]3[C@@H]4C[N+](C)(CC(=O)O)C[C@@H]43)CC2)c(Cl)c1 (mixture of isomers) [Example C30, 2-[(1R,5S)-6-[4-[2-chloro-4-[[5-[2,3-difluoro-4-(fluoromethoxy)phenyl]-1-meth-yl-imidazole-2-carbonyl]amino]-benzoyl]piper-azine-1-carbon-yl]-3-methyl-3-azoniabicyclo-[3.1.0]hexan-3-yl]acetic acid; 2,2,2-trifluoro-acetate]		0.54
Cn1c(-c2ccc(OC(F)F)c(Cl)c2F)cnc1C(=O)Nc1ccc(C(=O)N2CCN(C(=O)[C@@H]3C[C@@H](O)C[N+]3(C)C)CC2)c(Cl)c1 [Example B47, 5-[3-chloro-4-(difluoromethoxy)-2-fluoro-phenyl]-N-[3-chloro-4-[4-[(2S,4R)-4-hydroxy-1,1-dimethyl-pyrrolidin-1-ium-2-carbonyl]piperazine-1-carbonyl]phenyl]-1-methyl-imidazole-2-carboxamide; iodide]		0.039
Cn1c(-c2ccc(OC(F)F)c(F)c2)cnc1C(=O)Nc1ccc(C(=O)N2CCN(C(=O)C[N+](C)(C)C)CC2)c(Cl)c1 [Example B15, [2-[4-[2-chloro-4-[[5-[4-(difluoromethoxy)-3-fluoro-phenyl]-1-methyl-imidazole-2-carbonyl]amino]benzoyl]piperazin-1-yl]-2-oxo-ethyl]-trimethyl-ammonium; formate]		0.14
COc1ccc(-c2cnc(C(=O)Nc3ccc(C(=O)N4CCN(C(=O)[C@@H]5COCC[N+]5(C)C)CC4)c(Cl)c3)n2C)c(F)c1F [Example B35, N-[3-chloro-4-[4-[(3S)-4,4-dimethylmorpholin-4-ium-3-carbonyl]piperazine-1-carbonyl]phenyl]-5-(2,3-difluoro-4-methoxy-phenyl)-1-methyl-imidazole-2-carboxamide; iodide]		0.13
COc1ccc(-c2cnc(C(=O)Nc3ccc(C(=O)N4CCN(C(=O)CC[N+](C)(C)C)CC4)c(C)c3)n2C)c(F)c1F [Example B8, [3-[4-[4-[[5-(2,3-Difluoro-4-methoxy-phenyl)-1-methyl-imidazole-2-carbonyl]amino]-2-methyl-benzoyl]piperazin-1-yl]-3-oxo-propyl]-trimethyl-ammonium;2,2,2-trifluoroacetate]		0.18
COc1ccc(-c2cnc(C(=O)Nc3ccc(C(=O)N[C@H]4C[C@@H](NC(=O)C[N+](C)(C)C)C4)c(Cl)c3)n2C)c(F)c1F [Example A10, [2-[[3-[[2-Chloro-4-[[5-(2,3-difluoro-4-methoxy-phenyl)-1-methyl-imidazole-2-carbonyl]amino]benzoyl]amino]cyclobutyl]amino]-2-oxo-ethyl]-trimethyl-ammonium formate]		0.084
COc1ccc(-c2cnc(C(=O)Nc3ccc(C(=O)N4CCN(C(=O)CC[N+](C)(C)CC(N)=O)CC4)c(C)c3)n2C)c(F)c1F [Example B3, (2-amino-2-oxo-ethyl)-[3-[4-[4-[[5-(2,3-difluoro-4-methoxy-phenyl)-1-methyl-imidazole-2-carbonyl]amino]-2-methyl-benzoyl]piperazin-1-yl]-3-oxo-propyl]-dimethyl-ammonium; 2,2,2-trifluoroacetate]		0.19
COc1ccc(-c2cnc(C(=O)Nc3ccc(C(=O)N4CCN(C(=O)C5CC[N+](C)(C)CC5)CC4)c(Cl)c3)n2C)c(F)c1F [Example B10, N-[3-chloro-4-[4-(1,1-dimethylpiperidin-1-ium-4-carbonyl)piperazine-1-carbonyl]phenyl]-5-(2,3-difluoro-4-methoxy-phenyl)-1-methyl-imidazole-2-carboxamide; formate]		0.075
COc1ccc(-c2cnc(C(=O)Nc3ccc(C(=O)N4CC(NC(=O)C5CC[N+](C)(C)CC5)C4)c(Cl)c3)n2C)c(F)c1F [Example B17, N-[1-[2-chloro-4-[[5-(2,3-difluoro-4-methoxy-phenyl)-1-methyl-imidazole-2-carbonyl]amino]benzoyl]azetidin-3-yl]-1,1-dimethyl-piperidin-1-ium-4-carboxamide; formate]		0.25
Cn1c(-c2ccc(OCF)c(F)c2F)cnc1C(=O)Nc1ccc(C(=O)N2CCN(C(=O)C[N+](C)(C)C)CC2)c(Cl)c1 [Example B56, [2-[4-[2-chloro-4-[[5-[2,3-difluoro-4-(fluoromethoxy)phenyl]-1-methyl-imidazole-2-carbonyl]amino]benzoyl]piperazin-1-yl]-2-oxo-ethyl]-trimethyl-ammonium; formate]		0.061
COc1ccc(-c2cnc(C(=O)Nc3ccc(C(=O)NCc4cnc(NC(=O)[C@@H]5C[C@@H](O)C[N+]5(C)C)s4)c(Cl)c3)n2C)c(F)c1F [Example A27, N-[3-chloro-4-[[2-[[(2S,4R)-4-hydroxy-1,1-dimethyl-pyrrolidin-1-ium-2-carbonyl]amino]thiazol-5-yl]methylcarbamoyl]phenyl]-5-(2,3-difluoro-4-methoxy-phenyl)-1-methyl-imidazole-2-carboxamide; formate]		0.056
COc1ccc(-c2cnc(C(=O)Nc3ccc(C(=O)N4CCN(C(=O)C[N+](C)(C)C)CC4)c(Cl)c3)n2C)c(F)c1F [Example B20, [2-[4-[2-chloro-4-[[5-(2,3-difluoro-4-methoxy-phenyl)-1-methyl-imidazole-2-carbonyl]amino]benzoyl]piperazin-1-yl]-2-oxo-ethyl]-trimethyl-ammonium; formate]		0.076
Cc1cc(NC(=O)c2ncc(-c3ccc(OCC#N)c(F)c3F)n2C)ccc1C(=O)N1CCN(C(=O)N[C@@H]2C[N+](C)(C)C[C@H]2O)CC1 [Example B28, (3R,4R)-3-(4-(4-(5-(4-(cyanomethoxy)-2,3-difluorophenyl)-1-methyl-1H-imidazole-2-carboxamido)-2-methylbenzoyl)piperazine-1-carboxamido)-4-hydroxy-1,1-dimethylpyrrolidin-1-ium formate]		0.22
COc1ccc(-c2cnc(C(=O)Nc3ccc(C(=O)N4CCN(C(=O)C[N+](C)(C)C)CC4)c(C)c3)n2C)c(F)c1F [Example B21, [2-[4-[4-[5-(2,3-difluoro-4-methoxy-phenyl)-1-methyl-imidazole-2-carbonyl]amino]-2-methyl-benzoyl]piperazin-1-yl]-2-oxo-ethyl]-trimethyl-ammonium; formate]		0.28
COc1ccc(-c2cnc(C(=O)Nc3ccc(C(=O)N4CCN(CC[N+](C)(C)C)CC4)c(Cl)c3)n2C)c(F)c1F [Example A9, 2-[4-[2-chloro-4-[[5-(2,3-difluoro-4-methoxy-phenyl)-1-methyl-imidazole-2-carbonyl]amino]benzoyl]piperazin-1-yl]ethyl-trimethyl-ammonium; iodide]		0.13
COc1ccc(-c2cnc(C(=O)Nc3ccc(C(=O)NCc4c[n+](C)c(NC(=O)C[N+](C)(C)C)s4)c(Cl)c3)n2C)c(F)c1F [Example C23, [2-[[5-[[[2-chloro-4-[[5-(2,3-difluoro-4-methoxy-phenyl)-1-methyl-imidazole-2-carbonyl]amino]benzoyl]amino]methyl]-3-methyl-thiazol-3-ium-2-yl]amino]-2-oxo-ethyl]-trimethyl-ammonium;formate]		0.076
